Numbers after ± are expanded uncertainties.
Assay: xn = mol fraction of the nth substance listed
Conditions: Fluid (supercritical or subcritical phases), Buoyancy - hydrostatic balance with magnetic suspension - one sinker

[C-]#[O+] [carbon monoxide] + N#N
mass density [kg/m3]
Conditions	x1 = 0.04999	x1 = 0.1002
324.98 K, 9998.7 kPa	–	101.905 ± 0.12
324.98 K, 10007 kPa	101.939 ± 0.12	–
324.98 K, 10997 kPa	111.619 ± 0.14	–
324.98 K, 11997 kPa	–	121.32 ± 0.15
324.98 K, 12000 kPa	121.293 ± 0.15	–
324.98 K, 12999 kPa	130.817 ± 0.16	–
324.98 K, 13996 kPa	–	140.254 ± 0.17
324.98 K, 15957 kPa	158.239 ± 0.19	–
324.98 K, 15995 kPa	–	158.639 ± 0.19
324.98 K, 17995 kPa	176.379 ± 0.21	–
324.98 K, 17996 kPa	–	176.463 ± 0.21
324.98 K, 19931 kPa	193.033 ± 0.23	–
324.98 K, 19948 kPa	–	193.262 ± 0.23
324.99 K, 14116 kPa	141.303 ± 0.17	–
349.96 K, 991.96 kPa	–	9.538 ± 0.012
349.96 K, 2999.2 kPa	–	28.731 ± 0.035
349.96 K, 4997.9 kPa	–	47.663 ± 0.058
349.96 K, 6997.9 kPa	–	66.355 ± 0.081
349.96 K, 8997.6 kPa	–	84.725 ± 0.1
349.96 K, 10998 kPa	–	102.742 ± 0.12
349.96 K, 12999 kPa	–	120.335 ± 0.15
349.96 K, 14996 kPa	–	137.446 ± 0.17
349.96 K, 16994 kPa	–	154.09 ± 0.19
349.96 K, 18214 kPa	–	164 ± 0.2
349.97 K, 991.18 kPa	9.53 ± 0.012	–
349.97 K, 993.39 kPa	–	9.551 ± 0.012
349.97 K, 1959 kPa	18.808 ± 0.023	–
349.97 K, 1978.8 kPa	–	18.999 ± 0.023
349.97 K, 3922.5 kPa	–	37.508 ± 0.046
349.97 K, 4004.8 kPa	38.283 ± 0.047	–
349.97 K, 5997.7 kPa	–	57.048 ± 0.069
349.97 K, 5998.2 kPa	57.037 ± 0.069	–
349.97 K, 7998.9 kPa	–	75.601 ± 0.092
349.97 K, 8018.6 kPa	75.757 ± 0.092	–
349.97 K, 9998.3 kPa	–	93.794 ± 0.11
349.97 K, 10022 kPa	93.976 ± 0.11	–
349.97 K, 11997 kPa	–	111.586 ± 0.14
349.97 K, 12018 kPa	111.731 ± 0.14	–
349.97 K, 13995 kPa	–	128.938 ± 0.16
349.97 K, 13997 kPa	128.911 ± 0.16	–
349.97 K, 15994 kPa	145.784 ± 0.18	145.829 ± 0.18
349.97 K, 17992 kPa	162.172 ± 0.2	162.217 ± 0.2
349.97 K, 19655 kPa	175.42 ± 0.21	–
349.97 K, 19959 kPa	–	177.859 ± 0.22
374.95 K, 1995 kPa	–	17.848 ± 0.022
374.95 K, 2998.2 kPa	–	26.743 ± 0.033
374.95 K, 4980.9 kPa	–	44.17 ± 0.054
374.95 K, 6997.6 kPa	–	61.627 ± 0.075
374.95 K, 8997.4 kPa	–	78.624 ± 0.096
374.95 K, 10995 kPa	–	95.265 ± 0.12
374.95 K, 12994 kPa	–	111.524 ± 0.14
374.95 K, 15016 kPa	–	127.569 ± 0.15
374.95 K, 16990 kPa	–	142.823 ± 0.17
374.95 K, 19967 kPa	–	165.012 ± 0.2
374.96 K, 991.14 kPa	8.887 ± 0.011	–
374.96 K, 993.41 kPa	–	8.908 ± 0.011
374.96 K, 1989.3 kPa	17.794 ± 0.022	–
374.96 K, 3998.5 kPa	35.556 ± 0.043	–
374.96 K, 4004.8 kPa	–	35.621 ± 0.043
374.96 K, 5997.9 kPa	52.996 ± 0.065	–
374.96 K, 5999 kPa	–	53.019 ± 0.065
374.96 K, 7996.5 kPa	70.138 ± 0.085	–
374.96 K, 8024.2 kPa	–	70.391 ± 0.086
374.96 K, 9996 kPa	86.957 ± 0.11	–
374.96 K, 9997.9 kPa	–	86.999 ± 0.11
374.96 K, 11988 kPa	–	103.381 ± 0.13
374.96 K, 11996 kPa	103.411 ± 0.13	–
374.96 K, 13993 kPa	–	119.504 ± 0.14
374.96 K, 13995 kPa	119.477 ± 0.14	–
374.96 K, 15990 kPa	135.101 ± 0.16	135.151 ± 0.16
374.96 K, 17987 kPa	–	150.362 ± 0.18
374.96 K, 17988 kPa	150.312 ± 0.18	–
374.96 K, 18988 kPa	–	157.82 ± 0.19
374.96 K, 19817 kPa	163.859 ± 0.2	–
374.96 K, 19971 kPa	–	165.047 ± 0.2
400.02 K, 984.4 kPa	–	8.268 ± 0.01
400.02 K, 997.16 kPa	–	8.375 ± 0.011
400.02 K, 1934.5 kPa	16.2 ± 0.02	–
400.02 K, 1975.5 kPa	–	16.545 ± 0.02
400.02 K, 2994.3 kPa	–	24.985 ± 0.031
400.02 K, 3986.3 kPa	33.151 ± 0.04	–
400.02 K, 3997.3 kPa	–	33.254 ± 0.041
400.02 K, 4997.1 kPa	–	41.415 ± 0.05
400.02 K, 5996.1 kPa	–	49.523 ± 0.06
400.02 K, 5998 kPa	49.518 ± 0.06	–
400.02 K, 7005.5 kPa	–	57.622 ± 0.07
400.02 K, 7994.6 kPa	–	65.495 ± 0.08
400.02 K, 7996.6 kPa	65.491 ± 0.08	–
400.02 K, 8987 kPa	–	73.307 ± 0.089
400.02 K, 9895.5 kPa	–	80.402 ± 0.098
400.02 K, 9973.2 kPa	80.982 ± 0.098	–
400.02 K, 11025 kPa	–	89.118 ± 0.11
400.02 K, 11992 kPa	96.459 ± 0.12	–
400.02 K, 11994 kPa	–	96.505 ± 0.12
400.02 K, 12991 kPa	–	104.017 ± 0.13
400.02 K, 13990 kPa	111.428 ± 0.14	111.464 ± 0.14
400.02 K, 14988 kPa	–	118.8 ± 0.14
400.02 K, 15986 kPa	126.014 ± 0.15	126.048 ± 0.15
400.02 K, 16227 kPa	–	127.785 ± 0.15
400.02 K, 17982 kPa	–	140.257 ± 0.17
400.02 K, 17985 kPa	140.246 ± 0.17	–
400.02 K, 19027 kPa	147.507 ± 0.18	–
400.03 K, 18458 kPa	–	143.591 ± 0.17

— the NIST ThermoML archive (doi:10.1021/je2007764)
